Source: ChEMBL document CHEMBL4052650, “Halogen-substituted catechol bisphosphates are potent and selective inhibitors of the transcription factor STAT5b” (Bioorg Med Chem, 2017)
pIC50: −log10 of the molar value.

Experiments:
Homo sapiens = organism: Homo sapiens; assay: Selectivity factor, ratio of IC50 for displacement of 5-carboxyfluorescein-GY(PO3H2)LVLDKW from STAT5A SH2 domain (unknown origin) to IC50 for displacement of 5-carboxyfluorescein-GY(PO3H2)LVLDKW from STAT5B SH2 domain (unknown origin)
[1] = molecular target: T1, Signal transducer and activator of transcription 5B (Homo sapiens, UniProt P51692); assay: Displacement of 5-carboxyfluorescein-GY(PO3H2)LVLDKW from STAT5B SH2 domain (unknown origin) pretreated for 1 hr followed by fluorescent tracer addition after 1 hr by fluorescence polarization assay
T1 sequence (P51692 whole entry): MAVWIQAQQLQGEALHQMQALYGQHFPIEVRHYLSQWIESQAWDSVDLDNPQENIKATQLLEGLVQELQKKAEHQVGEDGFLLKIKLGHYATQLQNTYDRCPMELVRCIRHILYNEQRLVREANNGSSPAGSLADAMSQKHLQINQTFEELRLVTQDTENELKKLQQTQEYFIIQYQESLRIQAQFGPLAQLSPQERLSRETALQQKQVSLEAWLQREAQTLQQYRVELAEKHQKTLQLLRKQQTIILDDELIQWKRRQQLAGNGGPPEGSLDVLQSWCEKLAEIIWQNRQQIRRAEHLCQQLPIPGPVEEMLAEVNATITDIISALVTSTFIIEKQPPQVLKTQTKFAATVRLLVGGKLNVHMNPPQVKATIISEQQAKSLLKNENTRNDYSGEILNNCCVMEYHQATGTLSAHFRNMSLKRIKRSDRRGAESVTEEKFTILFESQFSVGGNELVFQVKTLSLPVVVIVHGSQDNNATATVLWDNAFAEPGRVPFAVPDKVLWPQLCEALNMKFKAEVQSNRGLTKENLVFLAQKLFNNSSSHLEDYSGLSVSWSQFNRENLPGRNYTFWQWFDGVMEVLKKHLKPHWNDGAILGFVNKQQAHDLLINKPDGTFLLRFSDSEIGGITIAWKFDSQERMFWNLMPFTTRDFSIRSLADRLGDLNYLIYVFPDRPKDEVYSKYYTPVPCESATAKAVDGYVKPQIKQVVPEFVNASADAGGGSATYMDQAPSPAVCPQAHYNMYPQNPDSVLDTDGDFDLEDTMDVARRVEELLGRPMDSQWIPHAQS

[2] = molecular target: T2, Signal transducer and activator of transcription 5A (Homo sapiens, UniProt P42229); assay: Displacement of 5-carboxyfluorescein-GY(PO3H2)LVLDKW from STAT5A SH2 domain (unknown origin) pretreated for 1 hr followed by fluorescent tracer addition after 1 hr by fluorescence polarization assay
T2 sequence (P42229 whole entry): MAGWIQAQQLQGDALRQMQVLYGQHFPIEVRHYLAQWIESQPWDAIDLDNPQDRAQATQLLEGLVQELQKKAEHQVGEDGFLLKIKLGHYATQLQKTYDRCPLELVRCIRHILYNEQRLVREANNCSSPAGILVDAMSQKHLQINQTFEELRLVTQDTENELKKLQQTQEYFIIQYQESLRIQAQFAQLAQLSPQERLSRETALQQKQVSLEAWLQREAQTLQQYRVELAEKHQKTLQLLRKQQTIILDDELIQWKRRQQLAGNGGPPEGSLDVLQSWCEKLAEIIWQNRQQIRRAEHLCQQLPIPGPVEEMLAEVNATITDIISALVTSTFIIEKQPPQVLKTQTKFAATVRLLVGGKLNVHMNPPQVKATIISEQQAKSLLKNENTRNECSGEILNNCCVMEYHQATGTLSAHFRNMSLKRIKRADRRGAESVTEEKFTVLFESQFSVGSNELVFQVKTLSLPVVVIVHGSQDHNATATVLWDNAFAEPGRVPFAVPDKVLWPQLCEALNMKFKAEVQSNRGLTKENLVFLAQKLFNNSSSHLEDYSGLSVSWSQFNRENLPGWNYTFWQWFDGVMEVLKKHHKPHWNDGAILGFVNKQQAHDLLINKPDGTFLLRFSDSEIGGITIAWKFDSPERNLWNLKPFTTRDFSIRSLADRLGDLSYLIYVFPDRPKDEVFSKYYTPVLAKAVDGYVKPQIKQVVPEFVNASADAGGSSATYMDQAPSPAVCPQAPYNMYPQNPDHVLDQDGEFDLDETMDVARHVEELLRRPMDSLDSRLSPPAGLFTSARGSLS

Structure (SMILES): O=C(COc1ccc2cc(C(=O)Nc3ccc(Br)cc3)ccc2c1)NCc1ccc(OP(=O)(O)O)c(OP(=O)(O)O)c1
- Ratio IC50 (Homo sapiens): 32
- pIC50 [1]: 6.62
- pIC50 [2]: 5.12

Structure (SMILES): O=C(COc1ccc(C(=O)Nc2ccc(Cl)cc2)cc1)NCc1ccc(OP(=O)(O)O)c(OP(=O)(O)O)c1
- Ratio IC50 (Homo sapiens): 22
- pIC50 [1]: 6.48
- pIC50 [2]: 5.13

Structure (SMILES): O=C(COc1ccc2cc(C(=O)Nc3ccc(F)cc3)ccc2c1)NCc1ccc(OP(=O)(O)O)c(OP(=O)(O)O)c1
- Ratio IC50 (Homo sapiens): 33
- pIC50 [1]: 6.66
- pIC50 [2]: 5.14

Structure (SMILES): O=C(COc1ccc2cc(C(=O)Nc3cccc(Br)c3)ccc2c1)NCc1ccc(OP(=O)(O)O)c(OP(=O)(O)O)c1
- Ratio IC50 (Homo sapiens): 37
- pIC50 [1]: 6.54
- pIC50 [2]: 4.97

Structure (SMILES): O=C(COc1ccc(C(=O)Nc2ccc(Br)cc2)cc1)NCc1ccc(OP(=O)(O)O)c(OP(=O)(O)O)c1
- Ratio IC50 (Homo sapiens): 22
- pIC50 [1]: 6.41
- pIC50 [2]: 5.07

Structure (SMILES): O=C(COc1ccc(C(=O)Nc2ccc(F)cc2)cc1)NCc1ccc(OP(=O)(O)O)c(OP(=O)(O)O)c1
- Ratio IC50 (Homo sapiens): 24
- pIC50 [1]: 6.46
- pIC50 [2]: 5.08

Structure (SMILES): O=C(COc1ccc(C(=O)Nc2cccc(Cl)c2)cc1)NCc1ccc(OP(=O)(O)O)c(OP(=O)(O)O)c1
- Ratio IC50 (Homo sapiens): 20
- pIC50 [1]: 6.34
- pIC50 [2]: 5.04

Structure (SMILES): O=C(COc1ccc2cc(C(=O)Nc3ccc(Cl)cc3)ccc2c1)NCc1ccc(OP(=O)(O)O)c(OP(=O)(O)O)c1
- Ratio IC50 (Homo sapiens): 33
- pIC50 [1]: 6.57
- pIC50 [2]: 5.05

Structure (SMILES): O=C(COc1ccc(C(=O)Nc2cccc(Br)c2)cc1)NCc1ccc(OP(=O)(O)O)c(OP(=O)(O)O)c1
- Ratio IC50 (Homo sapiens): 16
- pIC50 [1]: 6.18
- pIC50 [2]: 4.98

Structure (SMILES): O=C(COc1ccc2cc(C(=O)Nc3cccc(F)c3)ccc2c1)NCc1ccc(OP(=O)(O)O)c(OP(=O)(O)O)c1
- Ratio IC50 (Homo sapiens): 36
- pIC50 [1]: 6.63
- pIC50 [2]: 5.08

Structure (SMILES): O=C(COc1ccc(C(=O)Nc2cccc(F)c2)cc1)NCc1ccc(OP(=O)(O)O)c(OP(=O)(O)O)c1
- Ratio IC50 (Homo sapiens): 19
- pIC50 [1]: 6.21
- pIC50 [2]: 4.92

Structure (SMILES): O=C(COc1ccc2cc(C(=O)Nc3cccc(Cl)c3)ccc2c1)NCc1ccc(OP(=O)(O)O)c(OP(=O)(O)O)c1
- Ratio IC50 (Homo sapiens): 28
- pIC50 [1]: 6.59
- pIC50 [2]: 5.14

Structure (SMILES): O=C(COc1ccc(C(=O)Nc2ccccc2)cc1)NCc1ccc(OP(=O)(O)O)c(OP(=O)(O)O)c1
- Ratio IC50 (Homo sapiens): 35
- pIC50 [1]: 6.55
- pIC50 [2]: 5.01
